Test results published in ChEMBL document CHEMBL1201862, “PubChem BioAssay data set” (2004).
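Briefly, cells in 96-well plates were exposed to five compound concentrations for 48 h, and endpoints were estimated by linear interpolation. Here, GI50 denotes the concentration required for 50% inhibition of growth.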 Active and inactive are the calls of the source. Rule as the data show it: active = GI50 up to about 1.1 µM and inactive = higher.

Columns and labels:
Experiment in all cases: NCI tumour cell line growth inhibition, 48 h
SK-MEL-2 = tested on: SK-MEL-2
NCI-H226 = tested on: NCI-H226
NCI-H522 = tested on: NCI-H522
SK-MEL-28 = tested on: SK-MEL-28
NCI/ADR-RES = tested on: NCI/ADR-RES
SNB-75 = tested on: SNB-75
OVCAR-3 = tested on: OVCAR-3
SK-MEL-5 = tested on: SK-MEL-5
KM12 = tested on: KM12
SNB-19 = tested on: SNB-19
K562 = tested on: K562
SW-620 = tested on: SW-620
LOX IMVI = tested on: LOX IMVI
OVCAR-4 = tested on: OVCAR-4
HCT-116 = tested on: HCT-116
MCF7 = tested on: MCF7
DU-145 = tested on: DU-145
HOP-92 = tested on: HOP-92
NCI-H23 = tested on: NCI-H23
A549 = tested on: A549
M14 = tested on: M14
786-0 = tested on: 786-0
SF-295 = tested on: SF-295
Hs-578T = tested on: Hs-578T
MDA-MB-231 = tested on: MDA-MB-231
NCI-H460 = tested on: NCI-H460
A498 = tested on: A498
T47D = tested on: T47D
HOP-62 = tested on: HOP-62
TK-10 = tested on: TK-10
HT-29 = tested on: HT-29
MDA-MB-435 = tested on: MDA-MB-435
SR = tested on: SR
OVCAR-5 = tested on: OVCAR-5
HL-60 = tested on: HL-60
MOLT-4 = tested on: MOLT-4
EKVX = tested on: EKVX
UACC-257 = tested on: UACC-257
SN12C = tested on: SN12C
UO-31 = tested on: UO-31
CAKI-1 = tested on: CAKI-1
PC-3 = tested on: PC-3
RXF 393 = tested on: RXF 393
MDA-N = tested on: MDA-N
HCT-15 = tested on: HCT-15
IGROV-1 = tested on: IGROV-1
OVCAR-8 = tested on: OVCAR-8
COLO 205 = tested on: COLO 205
SF-539 = tested on: SF-539
CCRF-CEM = tested on: CCRF-CEM
ACHN = tested on: ACHN
RPMI-8226 = tested on: RPMI-8226
U-251 = tested on: U-251
SF-268 = tested on: SF-268
UACC-62 = tested on: UACC-62
Malme-3M = tested on: Malme-3M
SK-OV-3 = tested on: SK-OV-3

CCOC(=O)C(NC(=O)c1ccccc1)(Nc1ccc(S(=O)(=O)Nc2cc(C)nc(C)n2)cc1)C(F)(F)F (centres undefined)
GI50 (SK-MEL-2): > 100 µM (inactive)
GI50 (NCI-H226): > 100 µM (inactive)
GI50 (NCI-H522): > 100 µM (inactive)
GI50 (SK-MEL-28): > 100 µM (inactive)
GI50 (NCI/ADR-RES): > 100 µM (inactive)
GI50 (SNB-75): > 100 µM (inactive)
GI50 (OVCAR-3): > 100 µM (inactive)
GI50 (SK-MEL-5): > 100 µM (inactive)
GI50 (KM12): > 100 µM (inactive)
GI50 (SNB-19): > 100 µM (inactive)
GI50 (K562): > 100 µM (inactive)
GI50 (SW-620): 56.1 µM (inactive)
GI50 (LOX IMVI): > 100 µM (inactive)
GI50 (OVCAR-4): > 100 µM (inactive)
GI50 (HCT-116): > 100 µM (inactive)
GI50 (MCF7): > 100 µM (inactive)
GI50 (DU-145): > 100 µM (inactive)
GI50 (HOP-92): > 100 µM (inactive)
GI50 (NCI-H23): > 100 µM (inactive)
GI50 (A549): > 100 µM (inactive)
GI50 (M14): > 100 µM (inactive)
GI50 (786-0): > 100 µM (inactive)
GI50 (SF-295): > 100 µM (inactive)
GI50 (Hs-578T): > 100 µM (inactive)
GI50 (MDA-MB-231): > 100 µM (inactive)
GI50 (NCI-H460): > 100 µM (inactive)
GI50 (A498): 14.7 µM (inactive)
GI50 (T47D): > 100 µM (inactive)
GI50 (HOP-62): > 100 µM (inactive)
GI50 (TK-10): > 100 µM (inactive)
GI50 (HT-29): > 100 µM (inactive)
GI50 (MDA-MB-435): > 100 µM (inactive)
GI50 (SR): > 100 µM (inactive)
GI50 (OVCAR-5): > 100 µM (inactive)
GI50 (HL-60): > 100 µM (inactive)
GI50 (MOLT-4): > 100 µM (inactive)
GI50 (EKVX): > 100 µM (inactive)
GI50 (UACC-257): > 100 µM (inactive)
GI50 (SN12C): > 100 µM (inactive)
GI50 (UO-31): > 100 µM (inactive)
GI50 (CAKI-1): > 100 µM (inactive)
GI50 (PC-3): > 100 µM (inactive)
GI50 (RXF 393): > 100 µM (inactive)
GI50 (MDA-N): > 100 µM (inactive)
GI50 (HCT-15): > 100 µM
GI50 (IGROV-1): > 100 µM (inactive)
GI50 (OVCAR-8): > 100 µM (inactive)
GI50 (COLO 205): > 100 µM (inactive)
GI50 (SF-539): > 100 µM (inactive)
GI50 (CCRF-CEM): > 100 µM (inactive)
GI50 (ACHN): > 100 µM (inactive)
GI50 (RPMI-8226): > 100 µM (inactive)
GI50 (U-251): > 100 µM (inactive)
GI50 (SF-268): > 100 µM (inactive)
GI50 (UACC-62): > 100 µM (inactive)
GI50 (Malme-3M): > 100 µM (inactive)

COc1ccc(C2=CC(c3ccccc3)n3nnnc3N2)cc1 (centres undefined)
GI50 (SK-MEL-2): > 100 µM (inactive)
GI50 (NCI-H226): > 100 µM (inactive)
GI50 (NCI-H522): > 100 µM (inactive)
GI50 (NCI/ADR-RES): > 100 µM (inactive)
GI50 (OVCAR-3): > 100 µM (inactive)
GI50 (SK-MEL-5): > 100 µM (inactive)
GI50 (KM12): > 100 µM (inactive)
GI50 (SNB-19): > 100 µM (inactive)
GI50 (K562): > 100 µM (inactive)
GI50 (SW-620): > 100 µM (inactive)
GI50 (LOX IMVI): > 100 µM (inactive)
GI50 (HCT-116): > 100 µM (inactive)
GI50 (MCF7): > 100 µM (inactive)
GI50 (DU-145): > 100 µM (inactive)
GI50 (NCI-H23): > 100 µM (inactive)
GI50 (A549): > 100 µM (inactive)
GI50 (M14): > 100 µM (inactive)
GI50 (786-0): > 100 µM (inactive)
GI50 (SF-295): 52.2 µM (inactive)
GI50 (Hs-578T): 76.9 µM (inactive)
GI50 (MDA-MB-231): > 100 µM (inactive)
GI50 (NCI-H460): > 100 µM (inactive)
GI50 (T47D): 56.9 µM (inactive)
GI50 (HOP-62): 40.6 µM (inactive)
GI50 (HT-29): > 100 µM (inactive)
GI50 (MDA-MB-435): > 100 µM (inactive)
GI50 (SR): > 100 µM (inactive)
GI50 (OVCAR-5): > 100 µM (inactive)
GI50 (HL-60): > 100 µM (inactive)
GI50 (MOLT-4): > 100 µM (inactive)
GI50 (UACC-257): > 100 µM (inactive)
GI50 (SN12C): > 100 µM (inactive)
GI50 (UO-31): > 100 µM (inactive)
GI50 (CAKI-1): > 100 µM (inactive)
GI50 (SK-OV-3): > 100 µM (inactive)
GI50 (PC-3): > 100 µM (inactive)
GI50 (RXF 393): > 100 µM (inactive)
GI50 (HCT-15): > 100 µM
GI50 (IGROV-1): > 100 µM (inactive)
GI50 (OVCAR-8): > 100 µM (inactive)
GI50 (COLO 205): > 100 µM (inactive)
GI50 (SF-539): > 100 µM (inactive)
GI50 (CCRF-CEM): > 100 µM (inactive)
GI50 (ACHN): > 100 µM (inactive)
GI50 (RPMI-8226): 7.14 µM (inactive)
GI50 (U-251): 56 µM (inactive)
GI50 (SF-268): 74 µM (inactive)
GI50 (UACC-62): > 100 µM (inactive)
